As usually defined, the fraction remaining is the share of the starting amount still present when the sample was taken.

The text below walks through data of paper PMC13210772, “Dual FLT3/MAPK14 Proteolysis-Targeting Chimera (PROTAC) Induces Potent Acute Myeloid Leukemia Cell Death” (Pharmaceuticals, 2026).

One data set in a line: in vitro. The following applies: CD-1, mouse, liver microsomes, pH 7.4. (In general: Liver microsomes are a subcellular fraction often used to study metabolism.)
Data set [1] can be described thus: Metabolic stability in liver microsomes.
Data set [2] is described as follows: Non-enzymatic stability under cellular assay conditions (HPLC). The format is physicochemical. To be noted: compound remaining, assay medium DMEM, 37 °C. How it is done: An important aspect in the development of PROTACs is testing chemical stability. On the one hand, we tested all PROTACs produced for their stability under cellular assay conditions. For this purpose, 10 µM solutions of the PROTACs and reference inhibitor were incubated for 72 h at 37 °C with the assay medium DMEM. The remaining amount of the compounds was determined by HPLC after 6, 12, 24, 48 and 72 h. The results of the stability studies are shown in Table S2 (Supplementary Information).
The developed compounds were diluted in the assay media consisting of a mixture of DMEM (50%), DMSO (10%) and acetonitrile (40%) at pH 7.4 and incubated at 37 °C for 72 h. The quantity of the compounds was measured after 6, 12, 24, 48, and 72 h by HPLC using an XTerra RP18 column ([…], 3.9 mm × 100 mm) from the manufacturer Waters (Milford, MA, USA) and two LC-10AD pumps, an SPD-M10AVP PDA detector, and an SIL-HT autosampler, all from the manufacturer Shimadzu (Kyoto, Japan).

The target in the next data set is T1, FLT3-ITD (Homo sapiens, UniProt P36888, INS600HVDFREYEYD).
T1 sequence (P36888 with tags, fused parts or gaps INS600HVDFREYEYD): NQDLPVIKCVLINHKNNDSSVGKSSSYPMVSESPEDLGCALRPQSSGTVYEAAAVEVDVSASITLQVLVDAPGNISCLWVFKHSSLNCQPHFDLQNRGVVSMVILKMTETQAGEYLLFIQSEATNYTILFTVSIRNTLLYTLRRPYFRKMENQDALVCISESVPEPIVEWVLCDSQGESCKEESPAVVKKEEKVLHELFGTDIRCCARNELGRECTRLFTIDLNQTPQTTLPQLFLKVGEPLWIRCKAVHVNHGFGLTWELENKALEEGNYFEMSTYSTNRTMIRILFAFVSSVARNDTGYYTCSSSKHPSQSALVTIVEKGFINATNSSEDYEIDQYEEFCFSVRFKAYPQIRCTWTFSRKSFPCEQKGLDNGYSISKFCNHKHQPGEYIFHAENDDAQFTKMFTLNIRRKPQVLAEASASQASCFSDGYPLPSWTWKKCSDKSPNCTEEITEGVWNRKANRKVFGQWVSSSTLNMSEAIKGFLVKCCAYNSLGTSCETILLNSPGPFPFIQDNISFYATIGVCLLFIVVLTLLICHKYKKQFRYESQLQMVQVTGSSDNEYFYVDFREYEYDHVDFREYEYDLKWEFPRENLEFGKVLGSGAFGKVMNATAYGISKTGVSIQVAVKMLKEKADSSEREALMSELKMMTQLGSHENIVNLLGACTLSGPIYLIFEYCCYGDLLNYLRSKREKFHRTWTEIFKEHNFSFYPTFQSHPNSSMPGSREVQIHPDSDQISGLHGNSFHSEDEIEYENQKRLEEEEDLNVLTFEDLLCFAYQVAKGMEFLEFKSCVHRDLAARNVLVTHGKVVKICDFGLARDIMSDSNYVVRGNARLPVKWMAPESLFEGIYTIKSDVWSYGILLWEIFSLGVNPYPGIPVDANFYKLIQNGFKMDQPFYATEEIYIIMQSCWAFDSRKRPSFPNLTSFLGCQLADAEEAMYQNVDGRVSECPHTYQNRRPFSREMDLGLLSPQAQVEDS
Briefly: FLT3-ITD degradation, immunoblot in MV4-11 cells. To be noted: for inhibition at 0.05 µM: MV4-11, 24 h, read-out: % FLT3-ITD Degradation at 50 nM. For orientation: In western blotting, separated proteins are transferred to a membrane and probed.

In the data set “in vitro”, `O=C(O)Cc1ccccc1Nc1c(Cl)cccc1Cl` [Diclofenac, Diclofenac sodium, reference compound] yielded a share remaining at 10 min, 25 µM of 94.7 ± 1.7%; an amount remaining at 0.5 h, 25 µM of 78%; a fraction remaining at 1 h, 25 µM of 73%; an amount remaining at 2 h, 25 µM of 59%. Besides, the “0 min—Compound Remaining %” value in data set [1] (mouse (CD-1) liver microsomes, 25 μM, 0 min) was 100%. For the same compound, the “30 min—Compound Remaining %” value in data set [1] (mouse (CD-1) liver microsomes, 25 μM, 30 min) worked out at 79.0 ± 1.3%. Moreover, the “120 min—Compound Remaining %” value in data set [1] (mouse (CD-1) liver microsomes, 25 μM, 120 min) amounted to 60.8 ± 2.2%. Besides, the “0 min - compound remaining %” value in data set [1] (single runs A and B (Table S3), 0 min) came out at 100%. Also, the “10 min - compound remaining %” value in data set [1] (single runs A and B (Table S3), 10 min) is recorded as 96%. The “30 min - compound remaining %” value in data set [1] (single runs A and B (Table S3), 30 min, listed as Diclofenac_A) turned out to be 80%.
As for `Cc1ncsc1-c1ccc([C@H](C)NC(=O)[C@@H]2C[C@@H](O)CN2C(=O)[C@@H](NC(=O)CCCCCCCNC(=O)c2cc(Oc3ccc(NC(=O)Nc4cccc(C(F)(F)F)c4)cc3)ccn2)C(C)(C)C)cc1` [MA42, N-(8-(((S)-1-((2S,4R)-4-Hydroxy-2-(((S)-1-(4-(4-methylthiazol-5-yl)phenyl)ethyl)carbamoyl)-pyrrolidin-1-yl)-3,3-dimethyl-1-oxobutan-2-yl)amino)-8-oxooctyl)-4-(4-(3-(3-(trifluoromethyl)phenyl)ureido)phenoxy)picolinamide], in data set [2], the “0 h - %” value turned out to be 100%, the 6 h- % was 99.7%, the 12 h- % came out at 100.0% and the 24 h- % came to 100.2%. In data set [2], this compound had a 48 h- % of 100.8% and a 72 h- % of 101.0%. Further, the inhibition at 0.05 µM on FLT3-ITD was 30%. The “FLT3-ITD degradation” value at FLT3-ITD (MV4-11 cells, 50 nM, 24 h) is listed as “no significant degradation”.
Take `Cc1ncsc1-c1ccc([C@H](C)NC(=O)[C@@H]2C[C@@H](O)CN2C(=O)[C@@H](NC(=O)CCCCCNC(=O)c2cc(Oc3ccc(NC(=O)Nc4cccc(C(F)(F)F)c4)cc3)ccn2)C(C)(C)C)cc1` [MA43, N-(6-(((S)-1-((2S,4R)-4-Hydroxy-2-(((S)-1-(4-(4-methylthiazol-5-yl)phenyl)ethyl)carbamoyl)-pyrrolidin-1-yl)-3,3-dimethyl-1-oxobutan-2-yl)amino)-6-oxohexyl)-4-(4-(3-(3-(trifluoromethyl)phenyl)ureido)phenoxy)picolinamide]: in data set [2], the “0 h - %” value is given as 100%, the 6 h- % turned out to be 100.1%, the 12 h- % worked out at 100.3% and the 24 h- % amounted to 100.5%. In data set [2], this compound gave a 48 h- % of 101.0% and a 72 h- % of 101.2%. Further, the inhibition at 0.05 µM on FLT3-ITD is 20%. Further, at FLT3-ITD (MV4-11 cells, 50 nM, 24 h), the “FLT3-ITD degradation” value is “no significant degradation”.
As for `Cc1ncsc1-c1ccc([C@H](C)NC(=O)[C@H]2C[C@H](O)CN2C(=O)[C@@H](NC(=O)[C@H]2CC[C@H](C(=O)N3CCC(CCNC(=O)c4cc(Oc5ccc(NC(=O)Nc6cc(C(C)(C)C)on6)cc5)ccn4)CC3)CC2)C(C)(C)C)cc1` [MA224, 4-(4-(3-(5-(tert-Butyl)isoxazol-3-yl)ureido)phenoxy)-N-(2-(1-(trans-4-(((S)-1-((2R,4S)-4-hydroxy-2-(((S)-1-(4-(4-methylthiazol-5-yl)phenyl)ethyl)carbamoyl)pyrrolidin-1-yl)-3,3-dimethyl-1-oxobutan-2-yl)carbamoyl)cyclohexanecarbonyl)piperidin-4-yl)ethyl)picolinamide], at FLT3-ITD (MV4-11 cells, 50 nM, 24 h), the “% FLT3-ITD Degradation at 50 nM” value is listed as “No effect”.
With `NS(=O)(=O)OC[C@@H]1C[C@@H](n2ccc3c(N[C@H]4CCc5ccccc54)ncnc32)C[C@@H]1O` [MLN4924, reference compound], the “rescue of MA191-mediated degradation” value on FLT3-ITD (50 nM MA191 ± 3 µM MLN4924, 6 h, MV4-11 and MOLM-13 cells) was “prevented the MA191-mediated degradation of FLT3-ITD as well as MAPK14”.
